“Also recorded” adds a separate entry of the source.
Experiments:
Type in all cases: cell-based, human
monocytes [1] = assay: IL-6+ monocytes after LPS stimulation (intracellular staining); conditions: 10 μM; LPS 1000 ng/mL; vs vehicle
Method: (§1) In immunological activity experiments, PBMC suspensions were pre-treated with cannabinoid and/or terpene compounds for 30 minutes before treatment with designated stimuli, cultured in 96 well tissue culture plates, and incubated at 37° C. and 5.0% CO2. In pDC experiments, cell suspensions were stimulated with CpG-ODN Type A 2216 (15 μg/mL) (InvivoGen©, San Diego, Calif.) following treatment with cannabinoids. Golgi transport inhibitors Monensin (2 μM)/Brefeldin A (3.0 μg/mL) (Thermo Fisher Scientific, Waltham, Mass.) were added to culture 3 hours post-stimulation, and after 7 hours of stimulation cells were harvested for evaluation by flow cytometry for IFNα and TNFα. In monocyte experiments, cell suspensions were stimulated with 1000 ng/mL LPS (S. typhosa, Sigma Aldrich, St. Louis, Mo.) for 18 hours before harvesting supernatants for IL-1β, Golgi blocked for 6 hours before harvesting cells for assessment of IL-6, or cultured for 48 hours before harvesting cells for assessment of HLA-DR, CD80, and CD86. In phagocytosis experiments, cell suspensions were treated with 3.0 mg/mL of pHrodo Green BioParticles (Thermo Fisher). […] CD25 and CD69 were assessed by flow cytometry 24 hours post-stimulation. In proliferation experiments, cell suspensions were incubated with CFSE Cell Division Tracker (Biolegend) according to manufacturer protocols, harvested 4 days post-stimulation and assessed by flow cytometry. […]
(§2) In brief, pDC, monocyte and T cell were identified using antibodies directed against unique epitopes for each cell type and analyzed by flow cytometry. […] For intracellular staining, fixed cells were permeabilized in BD Permwash and incubated with appropriate antibodies and 7% human AB serum. pDC were identified as CD303+and assessed for intracellular IFNα and TNFα. Monocytes were identified as CD14+ and assessed for extracellular HLA-DR, CD80, CD86, and intracellular TNFα and IL-6. […] T cells were identified as CD3+ and T cell subsets identified by CD4+ and CD8+ and assessed for extracellular CD25 and CD69 and intracellular IFNγ and IL-4. […]

monocytes [2] = assay: Phagocytosis of pHrodo Green BioParticles by monocytes; conditions: 10 μM; pHrodo Green BioParticles 3.0 mg/mL; vs vehicle
Method: as §1, §2

monocytes [3] = assay: IL-1β ELISA in supernatants of LPS-stimulated PBMC; conditions: LPS 1000 ng/mL, vs vehicle
Method: (§3) In immunological activity experiments, PBMC suspensions were pre-treated with cannabinoid and/or terpene compounds for 30 minutes before treatment with designated stimuli, cultured in 96 well tissue culture plates, and incubated at 37° C. and 5.0% CO2. In pDC experiments, cell suspensions were stimulated with CpG-ODN Type A 2216 (15 μg/mL) (InvivoGen©, San Diego, Calif.) following treatment with cannabinoids. Golgi transport inhibitors Monensin (2 μM)/Brefeldin A (3.0 μg/mL) (Thermo Fisher Scientific, Waltham, Mass.) were added to culture 3 hours post-stimulation, and after 7 hours of stimulation cells were harvested for evaluation by flow cytometry for IFNα and TNFα. In monocyte experiments, cell suspensions were stimulated with 1000 ng/mL LPS (S. typhosa, Sigma Aldrich, St. Louis, Mo.) for 18 hours before harvesting supernatants for IL-1β, Golgi blocked for 6 hours before harvesting cells for assessment of IL-6, or cultured for 48 hours before harvesting cells for assessment of HLA-DR, CD80, and CD86. In phagocytosis experiments, cell suspensions were treated with 3.0 mg/mL of pHrodo Green BioParticles (Thermo Fisher). In T cell experiments, cells were plated on 96 well tissue culture plates pre-coated with 5.0 μg/mL anti-CD3 (clone UCHT1, Biolegend, San Diego, Calif.) and stimulated with 5.0 μg/mL anti-CD28 (clone 28.2, Biolegend) and supplemented with 5.0 ng/mL IL-2 (Roche Applied Science, Indianapolis, Ind.). CD25 and CD69 were assessed by flow cytometry 24 hours post-stimulation. In proliferation experiments, cell suspensions were incubated with CFSE Cell Division Tracker (Biolegend) according to manufacturer protocols, harvested 4 days post-stimulation and assessed by flow cytometry. Cell suspensions were further stimulated with 50 ng/mL phorbol 12-myristate 13-acetate (PMA) and 1000 ng/mL ionomycin (Io) at 4 days post-stimulation for 18 hours, Golgi blocked for 6 hours, and harvested for IL-4 and IFNγ assessment by flow cytometry.
To quantify IL-1β produced by monocytes, supernatants were collected from LPS stimulated cell suspensions after 18 hours and frozen at −80° C. ELISA MAX from Biolegend was used as per manufacturer protocol to quantify IL-1β to a sensitivity of […].

CD8+ T cells [4] = assay: Intracellular IFNγ after anti-CD3/anti-CD28 stimulation and PMA/ionomycin; conditions: 0.001 μM; vs vehicle
Method: as §3
as §2, with “cytometry. Cells were fixed in BD CytoFix and resuspended in FACS buffer for extracellular staining.” for “cytometry.”

CD4+ T cells [5] = assay: Intracellular IFNγ and IL-4 after anti-CD3/anti-CD28 stimulation and PMA/ionomycin; conditions: 0.001 μM; vs vehicle
Method: as §3
as §2, with “cytometry. Cells were fixed in BD CytoFix and resuspended in FACS buffer for extracellular staining.” for “cytometry.”

CD4+ T cells [6] = assay: T cell activation markers CD25 and CD69, 24 hours post-stimulation; conditions: concentration not given
Method: as §1, §2

CD4+ T cells [7] = assay: T cell proliferation (CFSE, FlowJo Proliferation tool)
Method: as §3
as §2, with “cytometry. Cells were fixed in BD CytoFix and resuspended in FACS buffer for extracellular staining.” for “cytometry.”

CD8+ T cells [8] = assay: as above
Method: as §3
as §2, with “cytometry. Cells were fixed in BD CytoFix and resuspended in FACS buffer for extracellular staining.” for “cytometry.”

[9] = test system: plasmacytoid dendritic cells (pDC); assay: IFNα and TNFα in pDC of PBMC stimulated with CpG-ODN (intracellular staining); conditions: 10 μM; CpG-ODN 15 μg/mL; vs vehicle
Method: as §3
(§4) In brief, pDC, monocyte and T cell were identified using antibodies directed against unique epitopes for each cell type and analyzed by flow cytometry. Cells were fixed in BD CytoFix and resuspended in FACS buffer for extracellular staining. To determine the changes in cell viability in mixed PBMC, gates were first set on singlet events, then CD45+ cells, then populations identified by CD3+ (T cells) and CD14+ (monocytes), and then 7-AAD- for viability. Likewise, for pDC viability experiments, pDC were identified as CD303+ and viable by exclusion of Near IR L/D stain (Life Technologies, Carlsbad, Calif.). For intracellular staining, fixed cells were permeabilized in BD Permwash and incubated with appropriate antibodies and 7% human AB serum. pDC were identified as CD303+and assessed for intracellular IFNα and TNFα. Monocytes were identified as CD14+ and assessed for extracellular HLA-DR, CD80, CD86, and intracellular TNFα and IL-6. In phagocytosis experiments, PBMC were identified as CD45+ and monocytes were identified based on side scatter and then phagocytosing monocytes. T cells were identified as CD3+ and T cell subsets identified by CD4+ and CD8+ and assessed for extracellular CD25 and CD69 and intracellular IFNγ and IL-4. To analyze T cell proliferation, FlowJo 10.0 proliferation tool was used by setting the undivided peak of CFSE stained cells in each sample.

monocytes [10] = assay: Co-stimulatory markers HLA-DR, CD80, CD86 on monocytes after LPS; conditions: 2 days
Method: as §3, §4

monocytes [11] = assay: TNFα+ monocytes after CpG-ODN stimulation (intracellular staining); conditions: CpG-ODN 15 μg/mL, 6 hours, vs vehicle
Method: FIGS. 9A-9B reveal the TNFα decreasing potential of cannabinol (CBN). […] PBMC were isolated from human peripheral blood and pre-treated with the indicated concentrations of cannabinol for 30 minutes, followed by stimulation with 15 μg/mL CpG-ODN for 6 hours (FIG. 9A). Cells were non-enzymatically released from culture plates and assessed for the percentage of TNFα+ monocytes (FIG. 9A) by intracellular staining. For FIG. 9B, PBMC were isolated from human peripheral blood and pre-treated with the indicated concentrations of cannabinol for 30 minutes, followed by treatment with 3.0 mg/mL of pHrodo Green BioParticles (FIG. 9B). In FIG. 9B, cells were treated with 3.0 mg/mL of pHrodo Green BioParticles and assessed for phagocytosis monocytes by flow cytometry within 2 hours. Data are normalized to each donor's vehicle control when appropriate and presented as mean±SEM. N=4-6 donors per treatment group. […] *p<0.05 when compared to VH (FIG. 9A), or **p<0.01 when compared to VH (FIG. 9B), by repeated measure one-way ANOVA with Dunnett's posttest.
as §2, with “cytometry. Cells were fixed in BD CytoFix and resuspended in FACS buffer for extracellular staining.” for “cytometry.”

[12] = indicated concentrations (0.001-10 μM)

With C=C(C)[C@@H]1CCC(C)=C[C@H]1c1c(O)cc(CCCCC)cc1O [CBD, cannabidiol, reference compound] the IL-6 in monocytes (monocytes [1]) was “significantly decreased”, the phagocytosis by monocytes (monocytes [2]) was “reduced; also recorded: significantly decreased” and the IL-1β in monocytes (monocytes [3]; 10 μM) was “significantly decreased”.

C/C(=C\CO)CCC[C@H](C)CCC[C@H](C)CCCC(C)C [Phytol A, phytol] was tested, and the “IFNγ in CD8+ T cells” value (CD8+ T cells [4]) was “not statistically significant” and the “IFNγ in CD4+ T cells” value (CD4+ T cells [5]) was “significantly decreased”.

For C=CC(C)(O)CC/C=C(\C)CCC=C(C)C (stereo not drawn) [trans-nerolidol, trans nerolidol], the “% CD25+ in CD4+ T cells (activation marker)” value (CD4+ T cells [6]) was “increased”, the IL-1β in monocytes (monocytes [3]; 0.01 μM) was “enhanced” and the IL-1β in monocytes (monocytes [3]; 0.01 μM, listed as tN) was “significantly increased”.

In the case of CCCCCc1cc(O)c2c(c1)OC(C)(C)[C@@H]1CCC(C)=C[C@@H]21 [THC, (6aR,10aR)-delta-9-tetrahydrocannabinol, reference compound], the “proliferation of CD4+ T cells” value (CD4+ T cells [7]; 0.01 μM) is reported as “significantly increased”, the “proliferation of CD8+ T cells” value (CD8+ T cells [8]; 0.01 μM) is reported as “significantly increased” and the “IFNα in plasmacytoid dendritic cells (pDC)” value [9] is reported as “significantly decreased”. The “TNFα in plasmacytoid dendritic cells (pDC)” value [9] was “significantly decreased”, the “CD80+ co-stimulatory marker in monocytes” value (monocytes [10]; 10 μM, vs vehicle) was “significantly decreased” and the “CD86+ co-stimulatory marker in monocytes” value (monocytes [10]; [12]) was “did not cause a statistically significant change”. The “HLA-DR+ co-stimulatory marker in monocytes” value (monocytes [10]; [12]) was “did not cause a statistically significant change”, the TNFα in monocytes (monocytes [11]; 10 μM) was “significantly decreased” and the IL-1β in monocytes (monocytes [3]; 10 μM) was “significantly decreased”.

In the case of CCCCCc1cc(O)c2c(c1)OC(C)(CCC=C(C)C)C=C2 (centres unmarked) [CBC, cannabichromene], the IL-6 in monocytes (monocytes [1]) is reported as “significantly decreased”, the “T cell proliferation in CD4+ T cells” value (CD4+ T cells [7]; 10 μM) is reported as “significantly decreased” and the “T cell proliferation in CD8+ T cells” value (CD8+ T cells [8]; increasing concentration up to 10 μM) is reported as “not statistically significant”. The “HLA-DR co-stimulatory marker in monocytes” value (monocytes [10]; 10 μM, vs vehicle) was “increased”, the “CD86+ co-stimulatory marker in monocytes” value (monocytes [10]; 1-10 μM, vs vehicle) was “increased” and the TNFα in monocytes (monocytes [11]; 0.1 μM) was “significantly increased”.

Source: US20220110910A1, “CANNABINOID-CONTAINING COMPLEX MIXTURES FOR THE TREATMENT OF CYTOKINE RELEASE SYNDROME WHILE PRESERVING KEY ANTI-VIRAL IMMUNE REACTIONS” (GBS Global BioPharma, Inc., priority 2020, published 2022)
